# From publication doi:10.1101/2023.10.20.563248v1 (biorxiv, 2023)
# Legend:
# Settings in all cases: 1 µM; inhibitor
# VEGFR2 = VEGFR2 (Homo sapiens, UniProt P35968)
# MAP4K5 = MAP4K5 (Homo sapiens, UniProt Q9Y4K4)
# PRK1 = PRK1 (Homo sapiens, UniProt Q16512)
# NEK1 = NEK1 (Homo sapiens, UniProt Q96PY6)
# FYN = FYN (Homo sapiens, UniProt P06241)
# SRPK1 = SRPK1 (Homo sapiens, UniProt Q96SB4)
# p38g = p38g (Homo sapiens, UniProt P53778)
# PKCb = PKCb (Homo sapiens, UniProt P05771)
# MST1 = MST1 (Homo sapiens, UniProt Q13043)
# TBK1 = TBK1 (Homo sapiens, UniProt Q9UHD2)
# TIE2 = TIE2 (Homo sapiens, UniProt Q02763)
# BRAF = BRAF (Homo sapiens, UniProt P15056)
# EGFR = EGFR (Homo sapiens, UniProt P00533)
# CDK7 = CDK7 (Homo sapiens, UniProt P50613)
# ROCK1 = ROCK1 (Homo sapiens, UniProt Q13464)
# CAMK2G = CAMK2G (Homo sapiens, UniProt Q13555)
# CDK20/CycT1 = CDK20/CycT1 (Homo sapiens, UniProt Q8IZL9)
# STK23 = STK23 (Homo sapiens, UniProt Q9UPE1)
# ERK7 = ERK7 (Homo sapiens, UniProt Q8TD08)
# CDK8 = CDK8 (Homo sapiens, UniProt P49336)
# ULK2 = ULK2 (Homo sapiens, UniProt Q8IYT8)
# LRRK2 = LRRK2 (Homo sapiens, UniProt Q5S007)
# CDC42BPA = CDC42BPA (Homo sapiens, UniProt Q5VT25)
# CDK1/CycA2 = CDK1/CycA2 (Homo sapiens, UniProt P06493)
# GSK3A = GSK3A (Homo sapiens, UniProt P49840)
# CLK1 = CLK1 (Homo sapiens, UniProt P49759)
# TSSK1 = TSSK1 (Homo sapiens, UniProt Q9BXA7)
# TRKB = TRKB (Homo sapiens, UniProt Q16620)
# LIMK1 = LIMK1 (Homo sapiens, UniProt P53667)
# MAP3K10 = MAP3K10 (Homo sapiens, UniProt Q02779)
# ACVRL1 = ACVRL1 (Homo sapiens, UniProt P37023)
# STK23, sequence (Q9UPE1 whole entry): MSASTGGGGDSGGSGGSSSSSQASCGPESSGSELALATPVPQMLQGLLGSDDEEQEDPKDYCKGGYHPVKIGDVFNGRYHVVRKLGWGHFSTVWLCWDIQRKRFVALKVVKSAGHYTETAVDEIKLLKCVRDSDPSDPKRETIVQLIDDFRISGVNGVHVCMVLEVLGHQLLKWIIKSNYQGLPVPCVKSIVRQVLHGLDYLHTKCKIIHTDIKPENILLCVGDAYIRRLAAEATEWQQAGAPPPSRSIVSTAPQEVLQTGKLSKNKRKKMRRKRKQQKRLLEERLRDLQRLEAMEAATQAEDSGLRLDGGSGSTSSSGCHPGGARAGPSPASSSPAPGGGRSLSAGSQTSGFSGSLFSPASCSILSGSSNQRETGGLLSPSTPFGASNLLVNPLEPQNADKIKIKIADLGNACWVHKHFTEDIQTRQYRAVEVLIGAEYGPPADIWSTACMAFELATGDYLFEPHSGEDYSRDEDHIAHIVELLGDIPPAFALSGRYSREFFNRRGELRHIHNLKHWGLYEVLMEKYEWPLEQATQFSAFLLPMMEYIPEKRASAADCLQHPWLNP
# TBK1, sequence (Q9UHD2 whole entry): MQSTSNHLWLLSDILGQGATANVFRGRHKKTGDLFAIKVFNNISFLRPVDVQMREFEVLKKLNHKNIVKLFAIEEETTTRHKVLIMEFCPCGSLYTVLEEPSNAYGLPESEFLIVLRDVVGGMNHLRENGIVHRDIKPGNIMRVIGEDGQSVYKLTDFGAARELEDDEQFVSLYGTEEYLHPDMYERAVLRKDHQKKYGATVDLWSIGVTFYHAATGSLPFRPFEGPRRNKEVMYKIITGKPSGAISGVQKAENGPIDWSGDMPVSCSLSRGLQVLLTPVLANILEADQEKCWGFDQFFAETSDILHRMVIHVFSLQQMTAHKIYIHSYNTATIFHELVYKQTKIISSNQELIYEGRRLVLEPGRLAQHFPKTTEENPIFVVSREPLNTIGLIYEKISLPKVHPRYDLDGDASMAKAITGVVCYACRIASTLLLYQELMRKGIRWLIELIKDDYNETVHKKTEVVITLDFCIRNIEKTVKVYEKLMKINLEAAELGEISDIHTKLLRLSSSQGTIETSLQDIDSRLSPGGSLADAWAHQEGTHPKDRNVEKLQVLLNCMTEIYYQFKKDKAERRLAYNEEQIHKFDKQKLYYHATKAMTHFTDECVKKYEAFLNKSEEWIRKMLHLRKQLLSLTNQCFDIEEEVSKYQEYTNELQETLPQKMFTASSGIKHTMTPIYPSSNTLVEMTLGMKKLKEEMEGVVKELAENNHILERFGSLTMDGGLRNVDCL
# NEK1, sequence (Q96PY6 whole entry): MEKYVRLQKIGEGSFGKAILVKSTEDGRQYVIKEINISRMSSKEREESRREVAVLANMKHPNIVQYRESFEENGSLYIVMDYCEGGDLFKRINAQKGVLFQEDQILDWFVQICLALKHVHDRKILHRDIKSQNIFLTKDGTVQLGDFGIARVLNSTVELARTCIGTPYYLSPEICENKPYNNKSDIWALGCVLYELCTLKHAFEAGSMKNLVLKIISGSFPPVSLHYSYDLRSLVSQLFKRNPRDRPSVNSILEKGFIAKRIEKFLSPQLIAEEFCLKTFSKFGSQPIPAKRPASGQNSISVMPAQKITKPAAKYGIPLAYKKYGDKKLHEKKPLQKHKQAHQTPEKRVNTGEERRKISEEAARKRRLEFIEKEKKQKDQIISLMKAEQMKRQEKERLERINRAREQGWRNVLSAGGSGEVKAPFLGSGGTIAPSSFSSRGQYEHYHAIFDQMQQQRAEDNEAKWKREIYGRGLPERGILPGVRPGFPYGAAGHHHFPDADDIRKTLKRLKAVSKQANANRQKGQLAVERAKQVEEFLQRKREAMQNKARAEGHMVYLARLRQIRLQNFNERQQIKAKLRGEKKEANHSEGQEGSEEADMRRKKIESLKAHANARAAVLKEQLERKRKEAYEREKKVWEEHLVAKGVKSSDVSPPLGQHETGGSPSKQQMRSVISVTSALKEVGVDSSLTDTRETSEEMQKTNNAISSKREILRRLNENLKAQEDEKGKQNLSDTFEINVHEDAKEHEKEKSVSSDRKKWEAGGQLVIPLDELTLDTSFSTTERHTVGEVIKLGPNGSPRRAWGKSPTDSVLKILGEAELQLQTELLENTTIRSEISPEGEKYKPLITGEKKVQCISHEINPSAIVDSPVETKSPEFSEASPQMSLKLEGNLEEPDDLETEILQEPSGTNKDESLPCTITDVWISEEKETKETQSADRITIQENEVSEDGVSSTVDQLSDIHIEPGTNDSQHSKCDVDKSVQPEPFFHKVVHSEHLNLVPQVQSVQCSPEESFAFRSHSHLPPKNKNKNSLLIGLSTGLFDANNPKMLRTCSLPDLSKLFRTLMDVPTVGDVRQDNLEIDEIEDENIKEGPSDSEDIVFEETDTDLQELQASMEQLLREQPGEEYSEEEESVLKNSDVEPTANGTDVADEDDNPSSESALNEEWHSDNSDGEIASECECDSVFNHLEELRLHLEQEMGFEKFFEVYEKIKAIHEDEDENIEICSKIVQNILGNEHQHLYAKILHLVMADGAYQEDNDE
# TSSK1, sequence (Q9BXA7 whole entry): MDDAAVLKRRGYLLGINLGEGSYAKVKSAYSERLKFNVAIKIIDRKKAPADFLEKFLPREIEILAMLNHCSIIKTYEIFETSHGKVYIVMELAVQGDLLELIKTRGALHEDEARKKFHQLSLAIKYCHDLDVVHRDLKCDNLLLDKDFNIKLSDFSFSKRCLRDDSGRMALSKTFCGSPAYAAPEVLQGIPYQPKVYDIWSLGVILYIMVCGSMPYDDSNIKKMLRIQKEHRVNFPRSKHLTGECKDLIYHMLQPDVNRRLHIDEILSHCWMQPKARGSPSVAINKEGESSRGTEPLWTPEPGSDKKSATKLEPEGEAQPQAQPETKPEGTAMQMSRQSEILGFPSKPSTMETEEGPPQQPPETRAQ
# ULK2, sequence (Q8IYT8 whole entry): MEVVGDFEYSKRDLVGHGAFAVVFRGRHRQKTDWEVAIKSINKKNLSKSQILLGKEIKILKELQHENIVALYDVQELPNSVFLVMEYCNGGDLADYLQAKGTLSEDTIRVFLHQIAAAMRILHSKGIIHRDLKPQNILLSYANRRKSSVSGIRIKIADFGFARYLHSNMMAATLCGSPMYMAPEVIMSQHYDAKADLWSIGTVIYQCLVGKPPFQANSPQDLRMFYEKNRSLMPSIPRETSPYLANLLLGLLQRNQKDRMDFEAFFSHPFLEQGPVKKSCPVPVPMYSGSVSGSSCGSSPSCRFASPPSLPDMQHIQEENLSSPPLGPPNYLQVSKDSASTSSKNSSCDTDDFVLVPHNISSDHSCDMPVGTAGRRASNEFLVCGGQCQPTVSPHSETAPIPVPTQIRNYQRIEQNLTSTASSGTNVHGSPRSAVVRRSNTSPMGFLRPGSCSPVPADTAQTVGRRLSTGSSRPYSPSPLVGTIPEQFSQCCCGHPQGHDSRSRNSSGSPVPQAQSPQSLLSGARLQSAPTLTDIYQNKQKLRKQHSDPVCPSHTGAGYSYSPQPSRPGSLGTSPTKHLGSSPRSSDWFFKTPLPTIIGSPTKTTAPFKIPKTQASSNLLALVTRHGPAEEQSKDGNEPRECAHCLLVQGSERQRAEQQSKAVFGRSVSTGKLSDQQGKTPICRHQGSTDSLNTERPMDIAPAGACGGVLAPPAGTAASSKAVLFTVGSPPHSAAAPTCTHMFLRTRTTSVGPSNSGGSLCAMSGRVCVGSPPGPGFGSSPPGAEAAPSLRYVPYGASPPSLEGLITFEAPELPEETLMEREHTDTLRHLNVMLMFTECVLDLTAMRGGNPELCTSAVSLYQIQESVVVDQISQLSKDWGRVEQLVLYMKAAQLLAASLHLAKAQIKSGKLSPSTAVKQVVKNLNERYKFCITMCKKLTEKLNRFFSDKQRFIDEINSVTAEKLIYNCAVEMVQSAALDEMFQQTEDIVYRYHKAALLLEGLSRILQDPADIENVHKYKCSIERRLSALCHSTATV
# CDK1/CycA2, sequence (P20248 whole entry): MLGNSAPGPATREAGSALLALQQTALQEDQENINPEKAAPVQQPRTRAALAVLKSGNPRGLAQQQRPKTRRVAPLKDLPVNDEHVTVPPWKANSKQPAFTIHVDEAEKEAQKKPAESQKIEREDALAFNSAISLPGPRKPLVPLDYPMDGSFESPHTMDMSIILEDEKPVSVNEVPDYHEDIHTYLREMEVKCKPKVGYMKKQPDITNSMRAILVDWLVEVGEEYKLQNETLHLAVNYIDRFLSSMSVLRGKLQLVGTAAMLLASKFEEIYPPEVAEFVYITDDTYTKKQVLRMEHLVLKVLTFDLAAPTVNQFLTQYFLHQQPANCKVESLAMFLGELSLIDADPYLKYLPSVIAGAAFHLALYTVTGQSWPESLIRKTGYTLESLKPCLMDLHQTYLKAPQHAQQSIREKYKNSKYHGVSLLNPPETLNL
# CDK1/CycA2, sequence (P06493 whole entry): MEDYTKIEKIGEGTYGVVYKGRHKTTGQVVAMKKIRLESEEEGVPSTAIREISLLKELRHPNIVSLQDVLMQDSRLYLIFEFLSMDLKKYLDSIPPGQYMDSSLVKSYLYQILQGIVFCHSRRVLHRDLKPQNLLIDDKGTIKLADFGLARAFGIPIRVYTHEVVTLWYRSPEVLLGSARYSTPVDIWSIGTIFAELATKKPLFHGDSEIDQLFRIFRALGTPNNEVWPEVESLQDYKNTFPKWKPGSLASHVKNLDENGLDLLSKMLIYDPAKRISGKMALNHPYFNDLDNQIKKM
# CDK7, sequence (P50613 whole entry): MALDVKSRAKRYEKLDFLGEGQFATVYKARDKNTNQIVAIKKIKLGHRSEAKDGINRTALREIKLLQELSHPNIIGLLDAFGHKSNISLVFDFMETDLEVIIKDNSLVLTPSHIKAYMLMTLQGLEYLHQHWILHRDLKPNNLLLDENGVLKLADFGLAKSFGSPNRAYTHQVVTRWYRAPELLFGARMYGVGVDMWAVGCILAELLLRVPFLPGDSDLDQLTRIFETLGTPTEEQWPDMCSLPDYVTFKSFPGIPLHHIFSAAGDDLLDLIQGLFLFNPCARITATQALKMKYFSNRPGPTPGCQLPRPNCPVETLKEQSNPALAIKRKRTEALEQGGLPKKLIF
structure (smiles),measurement,setting,value
"O=C1NCCCCCNc2nc(c3ccccc3n2)Nc2cc1[nH]n2 [21c, (Z)-3^1H-2,5,11-triaza-1(4,2)-quinazolina-3(3,5)-pyrazolacycloundecaphan-4-one]","21c Remaining activity, percent of control [%]",VEGFR2,90.3%
same,"21c Remaining activity, percent of control [%]",MAP4K5,78.8%
same,"21c Remaining activity, percent of control [%]",PRK1,91.8%
same,"21c Remaining activity, percent of control [%]",NEK1,79.1%
same,"21c Remaining activity, percent of control [%]",FYN,56.6%
same,"21c Remaining activity, percent of control [%]",SRPK1,101.4%
same,"21c Remaining activity, percent of control [%]",p38g,88.6%
same,"21c Remaining activity, percent of control [%]",PKCb,82.5%
same,"21c Remaining activity, percent of control [%]",MST1,105.6%
same,"21c Remaining activity, percent of control [%]",TBK1,111.6%
same,"21c Remaining activity, percent of control [%]",TIE2,116.9%
same,"21c Remaining activity, percent of control [%]",BRAF,89.7%
same,"21c Remaining activity, percent of control [%]",EGFR,100.0%
same,"21c Remaining activity, percent of control [%]",CDK7,112.5%
same,"21c Remaining activity, percent of control [%]",ROCK1,98.4%
same,"21c Remaining activity, percent of control [%]",CAMK2G,132.6%
same,"21c Remaining activity, percent of control [%]",CDK20/CycT1,89.1%
same,"21c Remaining activity, percent of control [%]",STK23,80.7%
same,"21c Remaining activity, percent of control [%]",ERK7,90.2%
same,"21c Remaining activity, percent of control [%]",CDK8,88.5%
same,"21c Remaining activity, percent of control [%]",ULK2,96.0%
same,"21c Remaining activity, percent of control [%]",LRRK2,90.3%
same,"21c Remaining activity, percent of control [%]",CDC42BPA,107.0%
same,"21c Remaining activity, percent of control [%]",CDK1/CycA2,91.9%
same,"21c Remaining activity, percent of control [%]",GSK3A,67.3%
same,"21c Remaining activity, percent of control [%]",CLK1,79.0%
same,"21c Remaining activity, percent of control [%]",TSSK1,95.8%
same,"21c Remaining activity, percent of control [%]",TRKB,79.0%
same,"21c Remaining activity, percent of control [%]",LIMK1,36.6%
same,"21c Remaining activity, percent of control [%]",MAP3K10,94.4%
same,"21c Remaining activity, percent of control [%]",ACVRL1,91.0%
